Data as given in ChEMBL document CHEMBL1135600, “Novel tricyclic-alpha-alkyloxyphenylpropionic acids: dual PPARalpha/gamma agonists with hypolipidemic and antidiabetic activity” (J Med Chem, 2002).
Where “and” joins values, the source holds several entries; their conditions need not be identical. Identical values can stand only once.

Assays:
[1] = Maximum plasma concentration after oral administration at a dose 2.2 mg/kg; assay type: ADME, organism-based; set-up: dose 2.2 mg/kg, route oral
[2] = Maximum achieved Total cholesterol reduction relative to vehicle treated control group; assay type: functional
[3] = test system: Mus musculus; experiment: In vivo blood glucose level in male db/db mice after administration of 1 mg/kg peroral dose of compound thrice a day; assay type: functional; conditions: route oral
[4] = test system: Mus musculus; experiment: In vivo blood glucose level in male db/db mice after administration of 3 mg/kg peroral dose of compound once in a day; assay type: functional; conditions: route oral
[5] = species: Mus musculus; experiment: Nonfasting insulin after 7 days treatment in male db/db mice; assay type: functional; conditions: 168 h
[6] = species: Mus musculus; experiment: Maximum achieved insulin reduction relative to vehicle treated control group; assay type: functional
[7] = Maximum achieved Nonfasted triglycerides reduction relative to vehicle treated control group; assay type: functional
[8] = test system: Mus musculus; experiment: In vivo blood glucose level in male db/db mice after administration of 1 mg/kg peroral dose of compound once in a day; assay type: functional; conditions: route oral
[9] = species: Mus musculus; experiment: Maximum achieved triglycerides reduction relative to vehicle treated control group; assay type: functional
[10] = species: Mus musculus; experiment: Nonfasting blood glucose after 7 days treatment in male db/db mice; assay type: functional; conditions: 168 h
[11] = Clearance after oral administration; assay type: ADME, organism-based; conditions: in vivo
[12] = test system: Mus musculus; experiment: In vivo % reduction of blood glucose area under curve after oral glucose tolerance test in male db/db mice at 3 mg/kg peroral dose of compound once in a day; assay type: ADME, organism-based; set-up: dose 3 mg/kg, route oral
[13] = test system: Mus musculus; experiment: In vivo % reduction of blood glucose level in male db/db mice after administration of 3 mg/kg peroral dose of compound once in a day; assay type: functional; conditions: route oral
[14] = test system: Mus musculus; experiment: In vivo % reduction of blood glucose area under curve after oral glucose tolerance test in male db/db mice at 1 mg/kg peroral dose of compound once in a day; assay type: ADME, organism-based; set-up: dose 1 mg/kg, route oral
[15] = test system: Mus musculus; experiment: In vivo blood glucose area under curve after oral glucose tolerance test in male db/db mice at 0.33 mg/kg peroral dose of compound thrice a day; assay type: ADME, organism-based; set-up: dose 0.33 mg/kg, route oral
[16] = test system: Mus musculus; experiment: In vivo % reduction of blood glucose area under curve after oral glucose tolerance test in male db/db mice at 0.33 mg/kg peroral dose of compound thrice a day; assay type: ADME, organism-based; set-up: dose 0.33 mg/kg, route oral
[17] = test system: Mus musculus; experiment: In vivo blood glucose area under curve after oral glucose tolerance test in male db/db mice at 3 mg/kg peroral dose of compound once in a day; assay type: ADME, organism-based; set-up: dose 3 mg/kg, route oral
[18] = test system: Mus musculus; experiment: In vivo % reduction of blood glucose area under curve after oral glucose tolerance test in male db/db mice at 1 mg/kg peroral dose of compound thrice a day; assay type: ADME, organism-based; set-up: dose 1 mg/kg, route oral
[19] = test system: Mus musculus; experiment: In vivo % reduction of blood glucose level in male db/db mice after administration of 0.33 mg/kg peroral dose of compound thrice a day; assay type: functional; conditions: route oral
[20] = test system: Mus musculus; experiment: In vivo % reduction of blood glucose level in male db/db mice after administration of 1 mg/kg peroral dose of compound once in a day; assay type: functional; conditions: route oral
[21] = test system: Mus musculus; experiment: In vivo blood glucose level in male db/db mice after administration of 0.33 mg/kg peroral dose of compound thrice a day; assay type: functional; conditions: route oral
[22] = test system: Mus musculus; experiment: In vivo blood glucose area under curve after oral glucose tolerance test in male db/db mice at 1 mg/kg peroral dose of compound thrice a day; assay type: ADME, organism-based; set-up: dose 1 mg/kg, route oral
[23] = Area under blood glucose time curve after OGTT on the 9th day of treatment; assay type: ADME, tissue-based
[24] = species: Mus musculus; experiment: (§1) Maximum achieved blood glucose reduction relative to vehicle treated control group; assay type: functional
[25] = Oral bioavailability; assay type: ADME, organism-based; conditions: eutheria, in vivo
[26] = test system: Mus musculus; experiment: In vivo blood glucose area under curve after oral glucose tolerance test in male db/db mice at 1 mg/kg peroral dose of compound once in a day; assay type: ADME, organism-based; set-up: dose 1 mg/kg, route oral
[27] = Area under plasma concentration time curve after oral administration at a dose 2.2 mg/kg; assay type: ADME, organism-based; set-up: dose 2.2 mg/kg, route oral; conditions: in vivo
[28] = species: Mus musculus; experiment: Nonfasting triglycerides after 7 days treatment in male db/db mice; assay type: functional; conditions: 168 h
[29] = test system: Mus musculus; experiment: In vivo % reduction of blood glucose level in male db/db mice after administration of 1 mg/kg peroral dose of compound thrice a day; assay type: functional; conditions: route oral
[30] = molecular target: T1, Peroxisome proliferator-activated receptor gamma (Homo sapiens, UniProt P37231)
T1 sequence (P37231 whole entry): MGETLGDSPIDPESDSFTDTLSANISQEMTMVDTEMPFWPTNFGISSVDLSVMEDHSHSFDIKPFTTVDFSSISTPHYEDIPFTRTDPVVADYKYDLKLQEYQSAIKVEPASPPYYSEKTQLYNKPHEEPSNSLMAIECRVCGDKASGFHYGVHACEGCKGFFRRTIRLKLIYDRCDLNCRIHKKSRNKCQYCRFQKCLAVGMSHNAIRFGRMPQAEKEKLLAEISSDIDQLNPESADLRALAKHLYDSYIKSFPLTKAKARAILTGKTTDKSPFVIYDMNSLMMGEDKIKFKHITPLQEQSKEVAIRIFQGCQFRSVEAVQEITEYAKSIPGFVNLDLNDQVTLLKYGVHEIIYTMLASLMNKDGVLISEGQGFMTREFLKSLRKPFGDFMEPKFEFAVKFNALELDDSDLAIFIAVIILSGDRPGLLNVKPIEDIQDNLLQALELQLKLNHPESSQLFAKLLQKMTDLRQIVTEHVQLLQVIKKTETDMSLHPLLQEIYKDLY
Description: In vitro transactivation using receptor transactivation assay against hPPAR gamma

[31] = species: Mus musculus; experiment: as §1; assay type: functional; remark: listed apart in the source
[32] = in vivo
Description: Volume of distribution during steady state

[33] = Oral half life was reported; assay type: ADME, organism-based; conditions: in vivo
[34] = molecular target: T2, Peroxisome proliferator-activated receptor alpha (Homo sapiens, UniProt Q07869); experiment: In vitro transactivation using receptor transactivation assay against hPPAR alpha; assay type: functional
T2 sequence (Q07869 whole entry): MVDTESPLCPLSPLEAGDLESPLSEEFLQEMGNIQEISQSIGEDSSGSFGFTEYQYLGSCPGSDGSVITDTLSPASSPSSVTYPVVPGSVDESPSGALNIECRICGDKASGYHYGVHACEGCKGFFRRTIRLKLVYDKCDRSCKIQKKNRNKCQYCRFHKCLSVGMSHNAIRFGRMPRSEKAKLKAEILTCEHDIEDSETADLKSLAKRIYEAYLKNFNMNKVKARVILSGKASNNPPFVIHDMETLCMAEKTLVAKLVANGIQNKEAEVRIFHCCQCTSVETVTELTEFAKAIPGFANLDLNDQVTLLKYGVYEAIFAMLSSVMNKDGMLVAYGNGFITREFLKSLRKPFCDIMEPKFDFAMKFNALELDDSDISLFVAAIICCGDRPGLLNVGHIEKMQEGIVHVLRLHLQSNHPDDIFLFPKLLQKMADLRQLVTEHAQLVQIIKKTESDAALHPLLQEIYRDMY

[35] = molecular target: T3, Peroxisome proliferator-activated receptor delta (Homo sapiens, UniProt Q03181); experiment: In vitro transcriptional activation of hPPAR delta; assay type: functional
T3 sequence (Q03181 whole entry): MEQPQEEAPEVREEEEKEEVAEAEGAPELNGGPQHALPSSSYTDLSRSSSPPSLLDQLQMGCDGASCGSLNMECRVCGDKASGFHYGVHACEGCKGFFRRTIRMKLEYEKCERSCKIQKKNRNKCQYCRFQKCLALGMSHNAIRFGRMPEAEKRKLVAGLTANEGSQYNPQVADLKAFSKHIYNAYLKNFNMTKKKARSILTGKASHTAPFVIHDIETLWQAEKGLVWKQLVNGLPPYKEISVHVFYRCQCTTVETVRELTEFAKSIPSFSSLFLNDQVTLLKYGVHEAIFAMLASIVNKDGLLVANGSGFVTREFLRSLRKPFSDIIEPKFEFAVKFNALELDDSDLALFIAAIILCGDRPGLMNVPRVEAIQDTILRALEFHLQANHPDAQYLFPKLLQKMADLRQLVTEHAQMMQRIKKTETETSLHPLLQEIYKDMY

EC50 [30] [nM] | EC50 [34] [nM] | SMILES | ED50 [5] [mg/kg] | Max reduction [6] [%] | Max reduction [9] [%] | ED50 [10] [mg/kg] | CL/F [11] [mL/min/kg] | AUC ED50 [23] [mg/kg] | Max reduction [24] | bioavailability [25] [%] | AUC [27] [ng·h/mL] | ED50 [28] [mg/kg] | also measured
16700 | – | CCOC(Cc1ccc(OCCC=C2c3ccccc3CCc3ccccc32)cc1)C(=O)O (stereo not given) | – | – | – | – | – | – | – | – | – | – | –
91 | 670 | CCOC(Cc1ccc(OCCn2c3ccccc3c3ccncc32)cc1)C(=O)O (stereo not given) | – | – | – | – | – | – | – | – | – | – | –
– | 340 | CCCCC[C@H](O)/C=C/[C@@H]1[C@H]2C/C(=C\CCCC(=O)O)C[C@H]2C[C@H]1O [CARBACYCLIN] | – | – | – | – | – | – | – | – | – | – | EC50 [35]: 2410 nM

More lines, now with the values behind:

SMILES | EC50 [30] [nM] | EC50 [34] [nM] | ED50 [5] [mg/kg] | Max reduction [6] [%] | Max reduction [9] [%] | ED50 [10] [mg/kg] | CL/F [11] [mL/min/kg] | AUC ED50 [23] [mg/kg] | Max reduction [24] | bioavailability [25] [%] | AUC [27] [ng·h/mL] | ED50 [28] [mg/kg] | also measured
CN(CCOc1ccc(CC2SC(=O)NC2=O)cc1)c1ccccn1 (stereo not given) [ROSIGLITAZONE] | – | – | 0.07 | 43 | 58 | 0.87 | 2.1 | 0.77 | 35% and 16% | 83 | 14600 | 0.14 | Cmax ([1]; rat): 4420 ng/mL; Reduction [2]: 24%; BG [3]: 13.06 mM; BG [4]: 11.72 mM; Reduction [7]: 11%; BG [8]: 16.08 mM; AUC glu reduction [12]: 28%; BG reduction [13]: 45%; AUC glu reduction [14]: 14%; AUC glu [15]: 2398 mM·min; AUC glu reduction [16]: 18%; AUC glu [17]: 2141 mM·min; AUC glu reduction(mM x min) [18]: 51%; BG reduction [19]: 47%; BG reduction [20]: 25%; BG [21]: 11.35 mM; AUC glu [22]: 1423 mM·min; AUC glu [26]: 2551 mM·min; BG reduction [29]: 39%
CCc1ccc(CCOc2ccc(CC3SC(=O)NC3=O)cc2)nc1 (stereo not given) [PIOGLITAZONE] | – | – | 15.1 | 54 | 21 | 2.62 | 1.4 | 12.09 | 53% | 112 | 29200 | 26.7 | Max reduction [31]: 39%; Cmax [1]: 4660 ng/mL; Vd [32]: 0.22 L/kg; half-life [33]: 3.8 h
CCOC(Cc1ccc(OCCC2c3ccccc3-c3ccccc32)cc1)C(=O)O (stereo not given) | 490 | 11700 | – | – | – | – | – | – | – | – | – | – | –
